Test results: patent US6326378A, “Use of thiadiazolo[4,3-a]pyridine derivatives” (Roche Diagnostics GmbH, priority 1998, dated 2001)
Converted amounts (≈) assume the structure as drawn.

Experiments:
T Lymphoblasts = assay: T Lymphoblasts, thymidine incorporation; assay type: cell-based; settings: no stimulus
Description: (§1) The compound from Example 2b inhibits the activation of various types of leucocytes under different stimuli.

dogs = assay: Toxicity / tolerability in dogs; assay type: in vivo, dog
Description: (§2) The behaviour of the dogs was normal.

Peripheral leucocytes = assay: Peripheral leucocytes, LPS, secretion of TNFα; assay type: cell-based; settings: Leucocyte; stimulus LPS
Description: as §1

Lymphocytes [1] = assay: Lymphocytes, ConA, thymidine incorporation; assay type: cell-based; settings: Lymphocyte; stimulus ConA
Description: as §1

Lymphocytes [2] = assay: Lymphocytes, mixed lymphocytes reaction, thymidine incorporation; assay type: cell-based; settings: Lymphocyte; stimulus mixed lymphocytes reaction
Description: as §1

conscious dogs (beagles) = assay: Effect on heart rate and arterial blood pressure of conscious dogs; assay type: in vivo, dog; settings: for DBP / MAP / SBP / HR: 24 mg/kg oral
Experimental: as §2
Effect on heart rate and on arterial blood pressure
of conscious dogs after oral administration of 24 mg/kg of the compound of […]

PDE III = PDE III inhibition, isolated human enzyme preparations; assay type: biochemical; settings: isolated human enzyme preparation
Experimental: (§3) The IC50 values of the compound from Example 2b were determined to be 2×10^-5 mol/l (PDE IV) and 8×10^-5 mol/l (PDE III) on isolated human enzyme preparations.

mice = assay: Toxicity / tolerability in mice; assay type: in vivo, mouse; settings: p.o. and i.p.
Description: as §2

PDE IV = PDE IV inhibition, isolated human enzyme preparations; assay type: biochemical; settings: isolated human enzyme preparation
Experimental: as §3

Basophilic granulocytes = assay: Basophilic granulocytes, anti-IgE antibody, proteinase release; assay type: cell-based; settings: stimulus anti-IgE antibody
Description: as §1

rats = assay: Toxicity / tolerability in rats; assay type: in vivo, rat
Description: as §2

guinea pigs = assay: Toxicity / tolerability in guinea pigs; assay type: in vivo, guinea pig; settings: p.o. and i.p.
Description: as §2

Phagocytes (PMNs) = assay: Phagocytes (PMNs), zymosan, chemiluminescence; assay type: cell-based; settings: stimulus zymosan
Description: as §1

[3] = cited from earlier work
[4] = conscious beagles, 24 mg/kg, observation period up to 6 h
[5] = conscious beagles, 24 mg/kg, up to 6 h after administration

c1ccn2c(=Nc3ccncc3)snc2c1 [Example 2b, 3-(4-Pyridinylimino)-3H-[1,2,4]thiadiazolo[4,3-a]pyridine]
IC50 (T Lymphoblasts): 6.4 µg/mL (≈ 28 µM)
behaviour of the dogs (dogs; conscious beagles, 24 mg/kg): normal
emetic action (dogs; conscious beagles, 24 mg/kg): not detectable
blood glucose (dogs; [4]): remained unchanged
triglycerides (dogs; [4]): remained unchanged
tolerability (dogs; dogs, p.o.): well tolerated
GPT (dogs; sign of liver damage, conscious beagles, 24 mg/kg, observation period up to 6 h): remained unchanged
IC50 (Peripheral leucocytes): < 3 µg/mL
IC50 (Lymphocytes [1]): 2.8 µg/mL (≈ 12.3 µM)
IC50 (Lymphocytes [2]): 7.6 µg/mL (≈ 33.3 µM)
arterial blood pressure (conscious dogs (beagles); [5]): remained constant
heart rate (conscious dogs (beagles); [5]): remained constant
DBP (conscious dogs (beagles); edible oil + 2% DMSO, 30 min, preliminary value 66): 63 mmHg
MAP (conscious dogs (beagles); edible oil + 2% DMSO, 30 min, preliminary value 111): 113 mmHg
SBP (conscious dogs (beagles); edible oil + 2% DMSO, 30 min, preliminary value 171): 181 mmHg
DBP (conscious dogs (beagles); edible oil + 2% DMSO, 60 min, preliminary value 66): 57 mmHg
HR (conscious dogs (beagles); edible oil + 2% DMSO, 60 min, preliminary value 79): 82 beats/min
MAP (conscious dogs (beagles); edible oil + 2% DMSO, 60 min, preliminary value 111): 109 mmHg
SBP (conscious dogs (beagles); edible oil + 2% DMSO, 60 min, preliminary value 171): 178 mmHg
DBP (conscious dogs (beagles); edible oil + 2% DMSO, 90 min, preliminary value 66): 58 mmHg
HR (conscious dogs (beagles); edible oil + 2% DMSO, 90 min, preliminary value 79): 86 beats/min
MAP (conscious dogs (beagles); edible oil + 2% DMSO, 90 min, preliminary value 111): 107 mmHg
SBP (conscious dogs (beagles); edible oil + 2% DMSO, 90 min, preliminary value 171): 173 mmHg
DBP (conscious dogs (beagles); edible oil + 2% DMSO, 120 min, preliminary value 66): 60 mmHg
HR (conscious dogs (beagles); edible oil + 2% DMSO, 120 min, preliminary value 79): 82 beats/min
MAP (conscious dogs (beagles); edible oil + 2% DMSO, 120 min, preliminary value 111): 109 mmHg
SBP (conscious dogs (beagles); edible oil + 2% DMSO, 120 min, preliminary value 171): 175 mmHg
DBP (conscious dogs (beagles); edible oil + 2% DMSO, 150 min, preliminary value 66): 63 mmHg
HR (conscious dogs (beagles); edible oil + 2% DMSO, 150 min, preliminary value 79): 82 beats/min
MAP (conscious dogs (beagles); edible oil + 2% DMSO, 150 min, preliminary value 111): 113 mmHg
SBP (conscious dogs (beagles); edible oil + 2% DMSO, 150 min, preliminary value 171): 179 mmHg
DBP (conscious dogs (beagles); edible oil + 2% DMSO, 180 min, preliminary value 66): 66 mmHg
HR (conscious dogs (beagles); edible oil + 2% DMSO, 180 min, preliminary value 79): 87 beats/min
MAP (conscious dogs (beagles); edible oil + 2% DMSO, 180 min, preliminary value 111): 114 mmHg
SBP (conscious dogs (beagles); edible oil + 2% DMSO, 180 min, preliminary value 171): 179 mmHg
DBP (conscious dogs (beagles); edible oil + 2% DMSO, 210 min, preliminary value 66): 68 mmHg
HR (conscious dogs (beagles); edible oil + 2% DMSO, 210 min, preliminary value 79): 86 beats/min
MAP (conscious dogs (beagles); edible oil + 2% DMSO, 210 min, preliminary value 111): 114 mmHg
SBP (conscious dogs (beagles); edible oil + 2% DMSO, 210 min, preliminary value 171): 174 mmHg
DBP (conscious dogs (beagles); edible oil + 2% DMSO, 240 min, preliminary value 66): 64 mmHg
HR (conscious dogs (beagles); edible oil + 2% DMSO, 240 min, preliminary value 79): 93 beats/min
MAP (conscious dogs (beagles); edible oil + 2% DMSO, 240 min, preliminary value 111): 109 mmHg
SBP (conscious dogs (beagles); edible oil + 2% DMSO, 240 min, preliminary value 171): 169 mmHg
DBP (conscious dogs (beagles); edible oil + 2% DMSO, 300 min, preliminary value 66): 65 mmHg
HR (conscious dogs (beagles); edible oil + 2% DMSO, 300 min, preliminary value 79): 92 beats/min
MAP (conscious dogs (beagles); edible oil + 2% DMSO, 300 min, preliminary value 111): 110 mmHg
SBP (conscious dogs (beagles); edible oil + 2% DMSO, 300 min, preliminary value 171): 169 mmHg
DBP (conscious dogs (beagles); edible oil + 2% DMSO, 360 min, preliminary value 66): 70 mmHg
HR (conscious dogs (beagles); edible oil + 2% DMSO, 360 min, preliminary value 79): 91 beats/min
MAP (conscious dogs (beagles); edible oil + 2% DMSO, 360 min, preliminary value 111): 115 mmHg
SBP (conscious dogs (beagles); edible oil + 2% DMSO, 360 min, preliminary value 171): 174 mmHg
HR (conscious dogs (beagles); edible oil + 2% DMSO, 1 ml/kg, 30 min, preliminary value 79, average n=5): 117 beats/min
DBP (conscious dogs (beagles); methyl cellulose 1% + 2% DMSO, 30 min, preliminary value 70): 65 mmHg
MAP (conscious dogs (beagles); methyl cellulose 1% + 2% DMSO, 30 min, preliminary value 114): 114 mmHg
SBP (conscious dogs (beagles); methyl cellulose 1% + 2% DMSO, 30 min, preliminary value 172): 179 mmHg
DBP (conscious dogs (beagles); methyl cellulose 1% + 2% DMSO, 60 min, preliminary value 70): 66 mmHg
HR (conscious dogs (beagles); methyl cellulose 1% + 2% DMSO, 60 min, preliminary value 83): 79 beats/min
MAP (conscious dogs (beagles); methyl cellulose 1% + 2% DMSO, 60 min, preliminary value 114): 114 mmHg
SBP (conscious dogs (beagles); methyl cellulose 1% + 2% DMSO, 60 min, preliminary value 172): 178 mmHg
DBP (conscious dogs (beagles); methyl cellulose 1% + 2% DMSO, 90 min, preliminary value 70): 63 mmHg
HR (conscious dogs (beagles); methyl cellulose 1% + 2% DMSO, 90 min, preliminary value 83): 83 beats/min
MAP (conscious dogs (beagles); methyl cellulose 1% + 2% DMSO, 90 min, preliminary value 114): 110 mmHg
SBP (conscious dogs (beagles); methyl cellulose 1% + 2% DMSO, 90 min, preliminary value 172): 172 mmHg
DBP (conscious dogs (beagles); methyl cellulose 1% + 2% DMSO, 120 min, preliminary value 70): 64 mmHg
HR (conscious dogs (beagles); methyl cellulose 1% + 2% DMSO, 120 min, preliminary value 83): 80 beats/min
MAP (conscious dogs (beagles); methyl cellulose 1% + 2% DMSO, 120 min, preliminary value 114): 111 mmHg
SBP (conscious dogs (beagles); methyl cellulose 1% + 2% DMSO, 120 min, preliminary value 172): 173 mmHg
DBP (conscious dogs (beagles); methyl cellulose 1% + 2% DMSO, 150 min, preliminary value 70): 64 mmHg
HR (conscious dogs (beagles); methyl cellulose 1% + 2% DMSO, 150 min, preliminary value 83): 81 beats/min
MAP (conscious dogs (beagles); methyl cellulose 1% + 2% DMSO, 150 min, preliminary value 114): 112 mmHg
SBP (conscious dogs (beagles); methyl cellulose 1% + 2% DMSO, 150 min, preliminary value 172): 175 mmHg
DBP (conscious dogs (beagles); methyl cellulose 1% + 2% DMSO, 180 min, preliminary value 70): 65 mmHg
HR (conscious dogs (beagles); methyl cellulose 1% + 2% DMSO, 180 min, preliminary value 83): 76 beats/min
MAP (conscious dogs (beagles); methyl cellulose 1% + 2% DMSO, 180 min, preliminary value 114): 114 mmHg
SBP (conscious dogs (beagles); methyl cellulose 1% + 2% DMSO, 180 min, preliminary value 172): 178 mmHg
DBP (conscious dogs (beagles); methyl cellulose 1% + 2% DMSO, 210 min, preliminary value 70): 63 mmHg
HR (conscious dogs (beagles); methyl cellulose 1% + 2% DMSO, 210 min, preliminary value 83): 84 beats/min
MAP (conscious dogs (beagles); methyl cellulose 1% + 2% DMSO, 210 min, preliminary value 114): 109 mmHg
SBP (conscious dogs (beagles); methyl cellulose 1% + 2% DMSO, 210 min, preliminary value 172): 169 mmHg
DBP (conscious dogs (beagles); methyl cellulose 1% + 2% DMSO, 240 min, preliminary value 70): 62 mmHg
HR (conscious dogs (beagles); methyl cellulose 1% + 2% DMSO, 240 min, preliminary value 83): 74 beats/min
MAP (conscious dogs (beagles); methyl cellulose 1% + 2% DMSO, 240 min, preliminary value 114): 108 mmHg
SBP (conscious dogs (beagles); methyl cellulose 1% + 2% DMSO, 240 min, preliminary value 172): 167 mmHg
DBP (conscious dogs (beagles); methyl cellulose 1% + 2% DMSO, 300 min, preliminary value 70): 62 mmHg
HR (conscious dogs (beagles); methyl cellulose 1% + 2% DMSO, 300 min, preliminary value 83): 77 beats/min
MAP (conscious dogs (beagles); methyl cellulose 1% + 2% DMSO, 300 min, preliminary value 114): 108 mmHg
SBP (conscious dogs (beagles); methyl cellulose 1% + 2% DMSO, 300 min, preliminary value 172): 169 mmHg
DBP (conscious dogs (beagles); methyl cellulose 1% + 2% DMSO, 360 min, preliminary value 70): 65 mmHg
HR (conscious dogs (beagles); methyl cellulose 1% + 2% DMSO, 360 min, preliminary value 83): 75 beats/min
MAP (conscious dogs (beagles); methyl cellulose 1% + 2% DMSO, 360 min, preliminary value 114): 110 mmHg
SBP (conscious dogs (beagles); methyl cellulose 1% + 2% DMSO, 360 min, preliminary value 172): 170 mmHg
HR (conscious dogs (beagles); methyl cellulose 1% + 2% DMSO, 1 ml/kg, 30 min, preliminary value 83, average n=5): 85 beats/min
IC50 (PDE III): 80 µM
tolerability (mice): well tolerated
IC50 (PDE IV): 20 µM
IC50 (Basophilic granulocytes): 10 µg/mL (≈ 43.8 µM)
side effects (behaviour, body weight, histology, haematological and clinicochemical parameters) (rats; after 2 weeks, 40 mg/kg daily): not possible to determine any side effects
tolerability (rats; p.o. and i.p.): well tolerated
tolerability (guinea pigs): well tolerated
IC50 (Phagocytes (PMNs)): 27 µg/mL (≈ 118 µM)

Cn1c(=O)c2[nH]cnc2n(C)c1=O [theophylline]
side effects ([3]; at slightly increased doses): nausea, giddiness, tachycardia and tremor
therapeutic breadth ([3]; employed for therapy): small therapeutic breadth
